ChEMBL document CHEMBL1121723 (J Med Chem, 1981)

Tests used:
[1] = biological target: Thromboxane-A synthase (Oryctolagus cuniculus); experiment: Inhibitory activity against rabbit thromboxane synthetase
[2] = test system: Thromboxane-A synthase (Oryctolagus cuniculus); experiment: Compound was tested for its inhibitory activity against Thromboxane synthetase; settings: concentration not given here
[3] = test system: Thromboxane-A synthase (Oryctolagus cuniculus); experiment: Compound was tested for its inhibitory activity against Thromboxane synthetase at 25 nM

| Compound | IC50 [1] | inhibition [2] | inhibition [3] |
| --- | --- | --- | --- |
| CC(=O)CCCCCCCn1ccnc1 | > 1000 nM |  |  |
| O=C(O)CCCCCCc1c[nH]cn1 | 20000 nM |  |  |
| NC(CCCCCCn1ccnc1)C(=O)O (stereo not given) | > 1000 nM |  |  |
| CSCCCCCCCCn1ccnc1 |  | 11.4% |  |
| O=C(O)CCCCCCc1ncc[nH]1 | 20000 nM |  |  |
| O=C(O)Cc1ccc(CCn2ccnc2)cc1 | 1500 nM |  |  |
| Cc1nccn1CCCCCCC(=O)O | > 1000 nM |  |  |
| c1cn(CCCCCCCn2ccnc2)cn1 | 2000 nM |  | 13.4% |
| SCCCCCCCCn1ccnc1 |  | 17.5% |  |
| N#CCCCCCCCn1ccnc1 |  | 0% |  |
| C[S+]([O-])CCCCCCCCn1ccnc1 (stereo not given) | 3300 nM |  | 9% |
| O=C(O)CCCc1ccc(Cn2ccnc2)cc1 | 1200 nM |  |  |
| O=S(=O)(O)CCCCCCn1ccnc1 |  | 8.8% |  |

The next lines start with the values.

| IC50 [1] | inhibition [2] | inhibition [3] | Compound |
| --- | --- | --- | --- |
| 140 nM |  |  | O=C(O)C(O)CCCCCCn1ccnc1 (stereo not given) |
| 250 nM |  |  | O=C(O)/C=C/c1ccc(OCCn2ccnc2)cc1 |
| 210 nM |  |  | O=C(O)COc1ccccc1Cn1ccnc1 |
| 40 nM |  |  | O=C(O)COc1ccc(Cn2ccnc2)cc1 |
| 134 nM |  |  | O=C(CCCCCCCn1ccnc1)c1ccccc1 |
| 44 nM |  |  | O=C(O)c1ccc(/C=C/Cn2ccnc2)cc1 |
| 25 nM |  |  | CC(C)(Oc1ccc(Cn2ccnc2)cc1)C(=O)O |
| 120 nM |  |  | O=C(O)CCCc1ccc(-n2ccnc2)cc1 |
| 5 nM |  |  | O=C(O)c1ccc(CCCn2ccnc2)cc1 |
| 250 nM |  |  | O=C(O)C(CO)CCCCCCn1ccnc1 (stereo not given) |
| 450 nM |  |  | CC(C)(CC/C=C/C=C/C(=O)O)n1ccnc1 |
| 550 nM |  |  | O=C(O)C(CCCCCCn1ccnc1)C(=O)O |
| 38 nM |  |  | CC(Oc1ccc(Cn2ccnc2)cc1)C(=O)O (stereo not given) |
| 32 nM |  |  | O=C(O)/C=C/c1cccc(Cn2ccnc2)c1 |
| 9 nM |  |  | CC(C)(CCCC#CCn1ccnc1)C(=O)O |
